# Test results reported in patent US20250186541A1, “DLL3 TARGETING PEPTIDES AND CONSTRUCTS THEREOF” (MARIANA ONCOLOGY INC., priority 2023, published 2025).
# Numbered stars: 1 amine (or outer) side, 2 acyl side, 3 side chain; on linkers, the order of the positions; unused ones are H or OH. Bridge positions count the residues as written; N and C are the ends. Square brackets hold non-standard residues; d marks the D form. Peptide text beside a SMILES is read from it. * marks the point of attachment. Ala(piperidin-4-yl) = O=C([C@H](CC1CCN([*:3])CC1)N[*:1])[*:2]; DOTA = O=C(O)CN1CCN(CC(=O)O)CCN(CC(=O)*)CCN(CC(=O)O)CC1; Phe(4-CH2NH2) = NCc1ccc(C[C@H](N)C(=O)O)cc1; Pro(trans-4-F) = O=C(O)[C@@H]1C[C@@H](F)CN1; Pro(cis-4-F) = O=C(O)[C@@H]1C[C@H](F)CN1; 1Nal = N[C@@H](Cc1cccc2ccccc12)C(=O)O; 2Nal = N[C@@H](Cc1ccc2ccccc2c1)C(=O)O; Phe(2-Me) = Cc1ccccc1C[C@H](N)C(=O)O; tBuAla = CC(C)(C)C[C@H](N)C(=O)O; dAllylGly = C=CC[C@@H](N)C(=O)O; AllylGly = C=CC[C@H](N)C(=O)O; Chg = N[C@H](C(=O)O)C1CCCCC1; αMeP = C[C@@]1(C(=O)O)CCCN1; NMeC = CN[C@@H](CS)C(=O)O; Nle = CCCC[C@H](N)C(=O)O
# Molecular target: T1, human DLL3 (Homo sapiens, UniProt Q9NYJ7)
# T1 construct: biotin (biotinylated)
# T1 sequence (Q9NYJ7 27-618): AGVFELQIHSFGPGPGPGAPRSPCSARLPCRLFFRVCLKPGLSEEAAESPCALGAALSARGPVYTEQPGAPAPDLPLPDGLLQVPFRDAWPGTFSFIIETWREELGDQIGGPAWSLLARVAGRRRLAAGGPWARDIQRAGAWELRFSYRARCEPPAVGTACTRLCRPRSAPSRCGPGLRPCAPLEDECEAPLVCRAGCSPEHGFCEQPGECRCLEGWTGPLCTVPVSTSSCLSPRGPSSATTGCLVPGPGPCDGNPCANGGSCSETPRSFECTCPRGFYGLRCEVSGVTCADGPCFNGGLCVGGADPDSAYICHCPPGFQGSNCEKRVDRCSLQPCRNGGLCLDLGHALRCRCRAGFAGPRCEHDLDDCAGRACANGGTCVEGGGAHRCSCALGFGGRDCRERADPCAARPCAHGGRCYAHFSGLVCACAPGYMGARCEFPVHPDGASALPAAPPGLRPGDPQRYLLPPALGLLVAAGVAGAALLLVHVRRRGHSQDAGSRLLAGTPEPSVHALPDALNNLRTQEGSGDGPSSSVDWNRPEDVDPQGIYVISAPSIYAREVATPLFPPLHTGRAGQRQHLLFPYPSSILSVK
# Experiment: Affinity determination by Surface Plasmon Resonance (SPR), Biacore, 1:1 binding model
# Conditions: biotinylated human DLL3 on streptavidin chip, 25° C.; NB = nonbinding
# Procedure: Example 3. Binding Affinity of Targeting Moieties Polypeptides to DLL3 Affinity Determination by Surface Plasmon Resonance (SPR)
# SPR studies were performed on the compounds disclosed herein using the following protocol. […] Biotinylated target ligand human DLL3 was immobilized on a streptavidin sensor chip. A reference surface was set up for nonspecific binding and refractive index changes. For analysis of the kinetics of interactions, varying concentrations of samples were injected at a flow rate of 100 μL/min using running buffer containing 20 mM phosphate buffer with 2.7 mM KCl, 137 mM NaCl, 0.05% Surfactant P20 and 2% DMSO. Sensorgram curves were fitted with 1:1 binding model, and affinity and kinetic parameters were obtained using Biacore Insight evaluation 4.0. software.
row,SMILES,Kd
1,"CSCC[C@H](NC(C)=O)C(=O)N[C@@H](CO)C(=O)N[C@@H](CC(=O)O)C(=O)N[C@H]1CSSC[C@@H](C(=O)N2C[C@@H](F)C[C@H]2C(=O)N[C@@H](Cc2ccccc2)C(=O)N[C@@H](CC(=O)O)C(=O)N[C@H](CCCCNC(=O)CN2CCN(CC(=O)O)CCN(CC(=O)O)CCN(CC(=O)O)CC2)C(N)=O)NC(=O)[C@H](CC(N)=O)NC(=O)[C@H](Cc2c[nH]c3ccccc23)NC(=O)[C@H](CCC(N)=O)NC(=O)[C@H](CC(C)C)NC(=O)[C@H](Cc2c[nH]c3ccccc23)NC1=O [compound 43, Ac-M-S-D-C(3)-W-L-Q-W-N-C(3)-(cis4Fluoro-P)-F-D-D-Lys(DOTA)-CONH2] (Ac-MSDCWLQWNC[Pro(cis-4-F)]FD[dK](DOTA)-NH2; disulfide 4-10)",28 nM
2,"CC(=O)N[C@@H](CC1CCNCC1)C(=O)N[C@@H](CO)C(=O)N[C@@H](CC(=O)O)C(=O)N[C@H]1C/C=C/C[C@@H](C(=O)N2CCC[C@@]2(C)C(=O)N[C@@H](Cc2ccccc2)C(=O)N[C@@H](CC(=O)O)C(N)=O)NC(=O)[C@H](CC(N)=O)NC(=O)[C@H](Cc2ccc3ccccc3c2)NC(=O)[C@H](Cc2ccc(CNC(=O)CN3CCN(CC(=O)O)CCN(CC(=O)O)CCN(CC(=O)O)CC3)cc2)NC(=O)[C@H](CC(C)(C)C)NC(=O)[C@H](Cc2cccc3ccccc23)NC1=O [compound 202, Ac-[3-(4-piperidinyl)-Ala]-S-D-AllyG(4)-(1Nal)-(t-Bu-Ala)-[PAF(DOTA)]-(2Nal)-N-AllyG(4)-(aMe-P)-F-D-CONH2] (Ac-[Ala(piperidin-4-yl)]SD[AllylGly][1Nal][tBuAla][Phe(4-CH2NH2)](DOTA)[2Nal]N[AllylGly][αMeP]FD-NH2; staple (E) 4-10)",0.53 nM
3,"CC(=O)N[C@@H](CC1CCNCC1)C(=O)N[C@@H](CO)C(=O)N[C@@H](CC(=O)O)C(=O)N[C@@H]1C/C=C/C[C@@H](C(=O)N2CCC[C@@]2(C)C(=O)N[C@@H](Cc2ccccc2)C(=O)N[C@@H](CC(=O)O)C(N)=O)NC(=O)[C@H](CC(N)=O)NC(=O)[C@H](Cc2ccc3ccccc3c2)NC(=O)[C@H](Cc2ccc(CNC(=O)CN3CCN(CC(=O)O)CCN(CC(=O)O)CCN(CC(=O)O)CC3)cc2)NC(=O)[C@H](CC(C)(C)C)NC(=O)[C@H](Cc2cccc3ccccc23)NC1=O [compound 210, Ac-[3-(4-piperidinyl)-Ala]-S-D-D-AllyG(4)-(1Nal)-(t-Bu-Ala)-[PAF(DOTA)]-(2Nal)-N-AllyG(4)-(aMe-P)-F-D-CONH2] (Ac-[Ala(piperidin-4-yl)]SD[dAllylGly][1Nal][tBuAla][Phe(4-CH2NH2)](DOTA)[2Nal]N[AllylGly][αMeP]FD-NH2; staple (E) 4-10)",> 100 nM
4,"CSCC[C@H](NC(C)=O)C(=O)N[C@@H](CO)C(=O)N[C@@H](CC(=O)O)C(=O)N[C@H]1CSSC[C@@H](C(=O)N2CCC[C@H]2C(=O)N[C@@H](Cc2ccccc2)C(=O)N[C@@H](CC(=O)O)C(N)=O)NC(=O)[C@H](CC(N)=O)NC(=O)[C@H](Cc2c[nH]c3ccccc23)NC(=O)[C@H](CCC(N)=O)NC(=O)[C@H](CC(C)C)NC(=O)[C@@H](C)NC1=O [compound 11, Ac-M-S-D-C(3)-(D-Ala)-L-Q-W-N-C(3)-P-F-D-CONH2] (Ac-MSDC[dA]LQWNCPFD-NH2; disulfide 4-10)",> 100 nM
5,"CCCC[C@@H]1NC(=O)[C@H](Cc2c[nH]c3ccccc23)NC(=O)[C@@H](NC(=O)[C@H](CC(=O)O)NC(=O)[C@H](CO)NC(=O)[C@H](CCSC)NC(C)=O)CSSC[C@@H](C(=O)N2CCC[C@H]2C(=O)N[C@@H](Cc2ccccc2)C(=O)N[C@@H](CC(=O)O)C(=O)N[C@H](CCCCNC(=O)CN2CCN(CC(=O)O)CCN(CC(=O)O)CCN(CC(=O)O)CC2)C(N)=O)NC(=O)[C@H](CC(N)=O)NC(=O)[C@H](Cc2c[nH]c3ccccc23)NC(=O)[C@H](CCC(N)=O)NC1=O [compound 68, Ac-M-S-D-C(3)-W-(Nle)-Q-W-N-C(3)-P-F-D-D-Lys(DOTA)-CONH2] (Ac-MSDCW[Nle]QWNCPFD[dK](DOTA)-NH2; disulfide 4-10)",15.9 nM
6,"CSCC[C@H](NC(C)=O)C(=O)N[C@@H](CO)C(=O)N[C@@H](CC(=O)O)C(=O)N[C@H]1CSSC[C@@H](C(=O)N2C[C@H](F)C[C@H]2C(=O)N[C@@H](Cc2ccccc2)C(=O)N[C@@H](CC(=O)O)C(=O)N[C@H](CCCCNC(=O)CN2CCN(CC(=O)O)CCN(CC(=O)O)CCN(CC(=O)O)CC2)C(N)=O)NC(=O)[C@H](CC(N)=O)NC(=O)[C@H](Cc2c[nH]c3ccccc23)NC(=O)[C@H](CCC(N)=O)NC(=O)[C@H](CC(C)C)NC(=O)[C@H](Cc2c[nH]c3ccccc23)NC1=O [compound 42, Ac-M-S-D-C(3)-W-L-Q-W-N-C(3)-(trans4Fluoro-P)-F-D-D-Lys(DOTA)-CONH2] (Ac-MSDCWLQWNC[Pro(trans-4-F)]FD[dK](DOTA)-NH2; disulfide 4-10)",10 nM
7,"CC(=O)N[C@H](C(=O)N[C@@H](CO)C(=O)N[C@@H](CC(=O)O)C(=O)N[C@H]1CSSC[C@@H](C(=O)N2CCC[C@H]2C(=O)N[C@@H](Cc2ccccc2)C(=O)N[C@@H](CC(=O)O)C(=O)N[C@H](CCCCNC(=O)CN2CCN(CC(=O)O)CCN(CC(=O)O)CCN(CC(=O)O)CC2)C(N)=O)N(C)C(=O)[C@H](CC(N)=O)NC(=O)[C@H](Cc2c[nH]c3ccccc23)NC(=O)[C@H](CCC(N)=O)NC(=O)[C@H](CC(C)C)NC(=O)[C@H](Cc2cccc3ccccc23)NC1=O)C1CCCCC1 [compound 115, Ac-(Chg)-S-D-C(3)-(1Nal)-L-Q-W-N-(NMe-Cys)-P-F-D-D-Lys(DOTA)-CONH2] (Ac-[Chg]SDC[1Nal]LQWN[NMeC]PFD[dK](DOTA)-NH2; disulfide 4-10)",> 100 nM
8,"CSCC[C@H](NC(C)=O)C(=O)N[C@@H](CO)C(=O)N[C@@H](CC(=O)O)C(=O)N[C@H]1CSSC[C@@H](C(=O)N[C@H](C)C(=O)N[C@@H](Cc2ccccc2)C(=O)N[C@@H](CC(=O)O)C(N)=O)NC(=O)[C@H](CC(N)=O)NC(=O)[C@H](Cc2c[nH]c3ccccc23)NC(=O)[C@H](CCC(N)=O)NC(=O)[C@H](CC(C)C)NC(=O)[C@H](Cc2c[nH]c3ccccc23)NC1=O [compound 16, Ac-M-S-D-C(3)-W-L-Q-W-N-C(3)-(D-Ala)-F-D-CONH2] (Ac-MSDCWLQWNC[dA]FD-NH2; disulfide 4-10)",> 100 nM

# The next lines start with the values.
row,Kd,SMILES
1,20.2 nM,"CC(=O)N[C@H](C(=O)N[C@@H](CCCCNC(=O)CN1CCN(CC(=O)O)CCN(CC(=O)O)CCN(CC(=O)O)CC1)C(=O)N[C@@H](CC(=O)O)C(=O)N[C@H]1CSSC[C@@H](C(=O)N2CCC[C@@]2(C)C(=O)N[C@@H](Cc2ccccc2)C(=O)N[C@@H](CC(=O)O)C(N)=O)NC(=O)[C@H](CC(N)=O)NC(=O)[C@H](Cc2c[nH]c3ccccc23)NC(=O)[C@H](CCC(N)=O)NC(=O)[C@H](CC(C)C)NC(=O)[C@H](Cc2cccc3ccccc23)NC1=O)C1CCCCC1 [compound 142, Ac-(Chg)-[L-Lys(DOTA)]-D-C(3)-(1Nal)-L-Q-W-N-C(3)-(aMe-P)-F-D-CONH2] (Ac-[Chg]K(DOTA)DC[1Nal]LQWNC[αMeP]FD-NH2; disulfide 4-10)"
2,0.13 nM,"CC(=O)N[C@H](C)C(=O)N[C@@H](CO)C(=O)N[C@@H](CC(=O)O)C(=O)N[C@H]1CSSC[C@@H](C(=O)N2CCC[C@@]2(C)C(=O)N[C@@H](Cc2ccccc2C)C(=O)N[C@@H](CC(=O)O)C(=O)N[C@H](CCCCNC(=O)CN2CCN(CC(=O)O)CCN(CC(=O)O)CCN(CC(=O)O)CC2)C(=O)O)NC(=O)[C@H](CC(N)=O)NC(=O)[C@H](Cc2ccc3ccccc3c2)NC(=O)[C@H](CCC(N)=O)NC(=O)[C@H](CC(C)(C)C)NC(=O)[C@H](Cc2cccc3ccccc23)NC1=O [Cpd #150, Ac-(D-Ala)-S-D-C(3)-(1Nal)-(t-Bu-Ala)-Q-(2Nal)-N-C(3)-(aMe-P)-(2Me-F)-D-[D-Lys(DOTA)]-COOH] (Ac-[dA]SDC[1Nal][tBuAla]Q[2Nal]NC[αMeP][Phe(2-Me)]D[dK](DOTA)-OH; disulfide 4-10)"
3,> 30 nM,"CC(=O)N[C@H](CO)C(=O)N[C@@H](CC(=O)O)C(=O)N[C@H]1CSSC[C@@H](C(=O)N2CCC[C@@]2(C)C(=O)N[C@@H](Cc2ccccc2)C(=O)N[C@@H](CC(=O)O)C(=O)N[C@H](CCCCNC(=O)CN2CCN(CC(=O)O)CCN(CC(=O)O)CCN(CC(=O)O)CC2)C(N)=O)NC(=O)[C@H](CC(N)=O)NC(=O)[C@H](Cc2c[nH]c3ccccc23)NC(=O)[C@H](CCC(N)=O)NC(=O)[C@@H](CC(C)C)NC(=O)[C@H](Cc2cccc3ccccc23)NC1=O [compound 139, Ac-(D-Ser)-D-C(3)-(1Nal)-(D-Leu)-Q-W-N-C(3)-(aMe-P)-F-D-D-Lys(DOTA)-CONH2] (Ac-[dS]DC[1Nal][dL]QWNC[αMeP]FD[dK](DOTA)-NH2; disulfide 3-9)"
